Experimental data reported in patent US20250223307A1, “MDM2/MDMX DOUBLE-TARGET INHIBITOR COMPOUND, PRODRUG, PHARMACEUTICAL COMPOSITION, AND PREPARATION METHOD THEREFOR AND USE THEREOF” (GLOBAL HEALTH DRUG DISCOVERY INSTITUTE, priority 2022, published 2025).

Tests used:
[1] = test system: Blood cancer cells RS4; 11; assay: CellTiter Glo test: growth inhibition of cells; assay type: cell-based; details: Homo sapiens, 11 cells, 72 h, cell viability
Description: Test of Candidate Compounds on Growth Inhibition of Cells Determined by CellTiter Glo
Blood cancer cells RS4; 11 were inoculated into the 96-well cell culture plate through Multidrop 3000 cells per well, with a volume of 100 μL. The final compound concentration ranged from 50 μM to 0.01 μM at 9 concentration gradients and the DMSO final concentration was 0.1%. The cells and compounds were co-incubated in a cell incubator at 37° C. for 72 h, a CellTiter-Glo Luminescent Cell Viability Assay reagent was added 100 μL/well, the cells and compound were uniformly mixed and incubated at room temperature for 10 min, and Envision reading was performed. A sample treated with 50 μM of a positive compound was taken as a positive control and a sample treated with 100 nL of DMSO was taken as a negative control.

MDM2 = MDM2 (Homo sapiens, UniProt Q00987); assay: HTRF test: inhibition of MDM2-p53 protein binding
MDMX = target: T1, MDMX (Homo sapiens, UniProt O15151); assay: HTRF test: inhibition of MDMX-p53 protein binding
T1 sequence (O15151 2-134): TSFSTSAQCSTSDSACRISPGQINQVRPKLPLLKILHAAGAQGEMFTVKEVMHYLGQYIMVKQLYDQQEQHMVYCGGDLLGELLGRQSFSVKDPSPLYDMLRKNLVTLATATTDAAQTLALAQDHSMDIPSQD

Chain of MDM2 (Q00987 2-138): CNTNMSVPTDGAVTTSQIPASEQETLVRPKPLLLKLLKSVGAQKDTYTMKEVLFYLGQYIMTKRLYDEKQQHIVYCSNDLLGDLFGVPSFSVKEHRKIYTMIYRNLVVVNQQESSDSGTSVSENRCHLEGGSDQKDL

Compound	IC50 [1]	IC50 (MDM2)	IC50 (MDMX)
C#Cc1ccc(CN2C(=O)N/C(=C\c3c[nH]c4c(F)c(Cl)ccc34)C2=O)cc1 [Compound 17, (Z)-5-((6-chloro-7-fluoro-1H-indol-3-yl)methylene)-3-(4-acetenylbenzyl)imidazolidine-2,4-dione]	≤ 1000 nM	10 to 100 nM	10 to 100 nM
Cc1c(Cl)ccc2c(/C=C3\NC(=O)N(C(C(=O)NCC45CCC(O)(CC4)CC5)c4ccc(F)c(F)c4)C3=O)c[nH]c12 (stereo not drawn) [Compound 64, (Z)-2-(4-((6-chloro-7-methyl-1H-indol-3-yl)methylene)-2,5-dioxoimidazolidin-1-yl)-2-(3,4-difluorophenyl)-N-((4-hydroxylbicyclo[2.2.2]octan-1-yl)methyl)acetamide]	≤ 1000 nM	< 10 nM	< 10 nM
N#Cc1ccc(C(C(=O)NC(CO)CO)N2C(=O)N/C(=C\c3c[nH]c4c(F)c(Cl)ccc34)C2=O)cc1F (stereo not drawn) [Compound 27, (Z)-2-(4-((6-chloro-7-fluoro-1H-indol-3-yl)methylene)-2,5-dioxoimidazolidin-1-yl)-2-(4-cyano-3-fluorophenyl)-N-(1,3-dihydroxypropan-2-yl)acetamide]	≤ 1000 nM	< 10 nM	< 10 nM
O=C1N/C(=C\c2c[nH]c3cc(Cl)ccc23)C(=O)N1Cc1ccc(F)cc1 [Compound 3, (Z)-5-((6-chloro-1H-indol-3-yl)methylene)-3-(4-fluorobenzyl)imidazolidine-2,4-dione]	≤ 1000 nM	10 to 100 nM	10 to 100 nM
N#Cc1ccc(CN2C(=O)N/C(=C\c3c[nH]c4c(OCF)c(Cl)ccc34)C2=O)cc1F [Compound 11, (Z)-4-((4-((6-chloro-7-(fluoromethoxyl)-1H-indol-3-yl)methylene)-2,5-dioxoimidazolidin-1-yl)methyl)-2-fluorobenzonitrile]	1000 to 10000 nM	< 10 nM	10 to 100 nM
N#Cc1ccc(C(C(=O)NCCO)N2C(=O)N/C(=C\c3c[nH]c4cc(Cl)ccc34)C2=O)cc1 (stereo not drawn) [Compound 61, (Z)-2-(4-((6-chloro-1H-indol-3-yl)methylene)-2,5-dioxoimidazolidin-1-yl)-2-(4-cyanophenyl)-N-(2-hydroxyethyl)acetamide]	1000 to 10000 nM	< 10 nM	10 to 100 nM
O=C1N/C(=C\c2c[nH]c3c(F)c(Cl)ccc23)C(=O)N1C(CO)c1ccc(Cl)cc1F (stereo not drawn) [Compound 99, (Z)-3-(1-(4-chloro-2-fluorophenyl)-2-hydroxyethyl)-5-((6-chloro-7-fluoro-1H-indol-3-yl)methylene)imidazolidine-2,4-dione]	≤ 1000 nM	10 to 100 nM	10 to 100 nM
O=C1N/C(=C\c2c[nH]c3c(F)c(Cl)ccc23)C(=O)N1C(CO)c1ccc(F)c(F)c1 (stereo not drawn) [Compound 86, (Z)-5-((6-chloro-7-fluoro-1H-indol-3-yl)methylene)-3-(1-(3,4-difluorophenyl)-2-hydroxyethyl)imidazolidine-2,4-dione]	≤ 1000 nM	10 to 100 nM	10 to 100 nM
Cc1c(Cl)ccc2c(/C=C3\NC(=O)N(C(CO)c4ccc(Cl)c(F)c4)C3=O)c[nH]c12 (stereo not drawn) [Compound 78, (Z)-3-(1-(4-chloro-3-fluorophenyl)-2-hydroxyethyl)-5-((6-chloro-7-methyl-1H-indol-3-yl)methylene)imidazolidine-2,4-dione]	≤ 1000 nM	10 to 100 nM	10 to 100 nM
N#Cc1ccc(CN2C(=O)N/C(=C\c3c[nH]c4cc(Cl)ccc34)C2=O)cc1F [Compound 20, (Z)-4-((4-((6-chloro-1H-indol-3-yl)methylene)-2,5-dioxoimidazolidin-1-yl)methyl)-2-fluorobenzonitrile]	≤ 1000 nM	10 to 100 nM	10 to 100 nM
